Source: patent US20180008569A1, “PROSTAGLANDIN TRANSPORTER INHIBITORS FOR INHIBITING OVULATION” (TEL HASHOMER MEDICAL RESEARCH INFRASTRUCTURE AND SERVICES …, priority 2015, published 2018)
Marks after values point to notes of the source that are not given here. Each block holds one molecule with its values, some of them ahead of it.

Tests used:
PGT transcripts in MGCs = experiment: PGT transcripts (qPCR) in cultured FSH-pretreated human mural granulosa cells; conditions: for FSK-induced upregulation of PGT expression: then FSK 10 μM 24 hours; for hCG-induced upregulation of PGT expression: then hCG 1U/ml 24 hours
Method: FSH-pretreated MGCs were then exposed to vehicle (PBS) or AREG for 24 hours. PGT was quantified by qPCR and normalized to/3-actin expression. Data represent the mean±SEM of three independent experiments.

[1] = system: PGE2 downstream target genes; experiment: Ovarian expression of ovulatory cascade, PG receptor and PG metabolism genes by qPCR in PMSG-primed/hCG+DIDS-treated mice; format: in vivo
Method: To characterize the ovulation-blocking effect of PGT at the molecular level, the effect of DIDS on the LH/CGR dependent activities was evaluated. Key representative genes of the ovulatory cascade were studied, including, oocyte maturation genes: amphiregulin (AREG), epiregulin (EREG), progesterone receptor (PR); cumulus expansion genes: tumor necrosis factor alpha-induced protein (TNFAIP6); follicular rupture related genes: disintegrin and metalloproteinase with thrombospondin motifs 1 (ADAMTS1), cathepsin L (CTSL); the ovulatory related genes: follicle stimulating hormone receptor (FSHR) and luteinizing hormone/chorionic gonadotropin receptor (LHCGR); and steroidogenesis related genes: steroidogenic acute regulatory protein (StAR) and cholesterol side cleavage chain (p450SCC). After total RNA was extracted from the ovaries of PMSG-primed/hCG+DIDS-treated mice and converted to cDNA, the expression of genes of interest was quantified by qPCR.

PGT [2] = target: T1, PGT (Mus musculus, UniProt Q9EPT5); experiment: Ovulated oocyte count in PMSG-primed/hCG-triggered immature female mice; format: in vivo; design: from tissue; host or cells: whole animal: PMSG-primed/hCG-triggered immature female mice (ovary)
PGT [3] = target: T1, PGT; experiment: Ovarian morphology (histology) in superovulated mice
[4] = Serum progesterone levels (corpus luteum function) in PMSG-primed/hCG-triggered mice; format: in vivo; conditions: concurrent treatment with DIDS, 24 hours post-hCG
PGT [5] = target: T1, PGT; experiment: Oocyte maturation and cumulus expansion in vivo in mice; design: from tissue; host or cells: whole animal: PMSG-primed/hCG-triggered immature female mice (ovary)
PGT [6] = target: PGT (Homo sapiens, UniProt Q92959); experiment: PGE2 concentration in media of MGCs by enzyme immunoassay (EIA); format: cell-based; design: basal media concentration of PGE2: dose or concentration left out as unconfirmed
EP receptor = experiment: Intracellular cAMP in MGCs after PGE2 pretreatment (EP receptor desensitization); format: cell-based, human; conditions: pretreated with 10 μM PGE2 10 min, washed, 10 μM PGE2 additional 10 min
Method: Inhibition of PGT activity or the provision of excess PGE2 results in the desensitization of the prostaglandin receptors […] and EP4 and thereby in a reduction in PGE2 signaling. An important second messenger for PGE2 is intracellular cAMP resulting from activation of either EP2 or EP4 receptor by PGE2. Thus, the hypothesis that excess PGE2 results in reduced PG signaling in human granulosa cells was tested. MGCs were incubated with 10 μM PGE2 for 10 min or pretreated with 10 μM PGE2 for 10 min, washed and then treated with 10 μM PGE2 for additional 10 min cAMP levels were measured in the cell lysate and was normalized to total protein content.

EP4 receptor = EP4 receptor mRNA expression in FSH-pretreated MGCs; format: cell-based, human; conditions: 10 μM PGE2, 24 hours
[7] = system: whole ovarian PGT transcripts; experiment: Whole ovarian PGT transcripts in PMSG-primed/hCG-triggered immature mouse superovulation model; format: in vivo; conditions: PMSG for 48 hours
[8] = Homo sapiens, read-out: increase in PGT transcripts (fold induction)

T1 sequence (Q9EPT5 whole entry): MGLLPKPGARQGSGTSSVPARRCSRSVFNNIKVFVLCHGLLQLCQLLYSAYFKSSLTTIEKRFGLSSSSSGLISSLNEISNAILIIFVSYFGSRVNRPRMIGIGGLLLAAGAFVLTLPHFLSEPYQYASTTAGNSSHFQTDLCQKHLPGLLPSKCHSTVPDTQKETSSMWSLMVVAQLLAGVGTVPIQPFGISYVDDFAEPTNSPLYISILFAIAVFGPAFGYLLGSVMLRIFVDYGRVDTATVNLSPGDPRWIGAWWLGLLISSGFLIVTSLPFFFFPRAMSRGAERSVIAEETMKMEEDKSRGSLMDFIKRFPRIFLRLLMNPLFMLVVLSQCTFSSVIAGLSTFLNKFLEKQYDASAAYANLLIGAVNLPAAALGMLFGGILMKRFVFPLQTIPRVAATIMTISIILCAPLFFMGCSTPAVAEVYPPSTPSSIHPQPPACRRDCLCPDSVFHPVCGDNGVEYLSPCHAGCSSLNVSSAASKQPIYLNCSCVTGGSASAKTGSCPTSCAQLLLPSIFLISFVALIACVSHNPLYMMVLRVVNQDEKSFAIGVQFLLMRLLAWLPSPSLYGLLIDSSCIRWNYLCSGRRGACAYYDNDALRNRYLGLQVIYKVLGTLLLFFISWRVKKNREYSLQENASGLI

Molecule: CCCCCCCCCCCCCC(=O)O[C@@H]1[C@@H](C)[C@@]2(O)[C@@H](C=C(CO)C[C@]3(O)C(=O)C(C)=C[C@@H]23)[C@@H]2C(C)(C)[C@]12OC(C)=O [PMA, phorbol myristate acetate]
fold induction at 0.02 µM (PGT transcripts in MGCs; [8]): 11

PGDH expression ([1]; addition of DIDS): not affected | downregulation of EP2 by hCG ([1]; addition of DIDS): abolished | reduction of FSHR mRNA in response to hCG ([1]; addition of DIDS): abolished | upregulation by hCG of COX-2 ([1]; addition of DIDS): inhibited | upregulation by hCG of EP4 ([1]; addition of DIDS): inhibited | upregulation by hCG of PGT ([1]; addition of DIDS): inhibited | expression of most of the ovulation related transcripts studied (except p450SCC and LHCGR) ([1]; ovaries of PMSG-primed/hCG+DIDS-treated mice): profound inhibition | ovulated oocyte count (PGT [2]; different concentrations of DIDS at time of hCG, 16 hours): dose-dependent decrements | No. of oocytes in ovulating mice (PGT [2]; hCG + DIDS 5 mg/kg, 16 hours): 7-77 | No. ova/ovulating mice (Mean ± SEM) (PGT [2]; hCG + DIDS 5 mg/kg, 16 hours): 53.5 ± 5.1 | No. of oocytes in ovulating mice (PGT [2]; hCG + DIDS 10 mg/kg, 16 hours): 10-60 | No. ova/ovulating mice (Mean ± SEM) (PGT [2]; hCG + DIDS 10 mg/kg, 16 hours): 27.4 ± 6.8 | No. of oocytes in ovulating mice (PGT [2]; hCG + DIDS 20 mg/kg, 16 hours): 1-51 | No. ova/ovulating mice (Mean ± SEM) (PGT [2]; hCG + DIDS 20 mg/kg, 16 hours): 22 ± 6.8 | No. ova/ovulating mice (Mean ± SEM) (PGT [2]; hCG + DIDS 50 mg/kg, 16 hours): 9 | inhibition at 50 mg/kg (PGT [2]; mouse, read-out: inhibition of ovulation): 95.5% | cumulus state of COCs (PGT [5]; DIDS, 24 hours following treatment with hCG): compact cumulus | oocytes at GV (PGT [5]; hCG + DIDS): 100% (102/102) | oocytes at MI (PGT [5]; hCG + DIDS): 0% (0/102) | oocytes at MII (PGT [5]; hCG + DIDS): 0% (0/102) | cumulus state of COCs (PGT [5]; hCG and DIDS 50 mg/kg): compact cumulus | oocyte maturation stage (PGT [5]; hCG+DIDS-treated mice): immature and at the GV stage | cumuli of recovered cumulus-oocyte-complexes (PGT [5]; lower doses of DIDS): expanded normal-appearing cumuli | denuded oocytes from recovered cumulus-oocyte-complexes (PGT [5]; lower doses of DIDS): morphologically normal, mature (M2)
Molecule: O=S(=O)(O)c1cc(N=C=S)ccc1C=Cc1ccc(N=C=S)cc1S(=O)(=O)O [DIDS, 4,4′-Diisothiocyanatostilbene-2,2′-disulfonic acid]
ovarian morphology (PGT [3]; hCG+DIDS, 16 hours after hCG): numerous unruptured preovulatory follicles with entrapped oocytes | ovarian morphology (PGT [3]; hCG+DIDS, forty hours after hCG injection): still contained entrapped oocytes in preovulatory follicles | serum progesterone levels [4]: significant reduction

Molecule: Cc1c(C2(c3cc(Br)c(O)c(Br)c3C)OS(=O)(=O)c3ccccc32)cc(Br)c(O)c1Br [BCG, Bromocresol Green]
ovulation (PGT [2]; BCG at 500 and 350 mg/kg with hCG, 16 hours): complete blockade of ovulation | No. ova/ovulating mice (Mean ± SEM) (PGT [2]; hCG + BCG 250 mg/kg, 16 hours): 58.4 ± 7.4 | Range of oocytes in ovulating mice (PGT [2]; hCG + BCG 250 mg/kg, 16 hours): 12-61 | No. ova/ovulating mice (Mean ± SEM) (PGT [2]; hCG + BCG 300 mg/kg, 16 hours): 1.3* | Range of oocytes in ovulating mice (PGT [2]; hCG + BCG 300 mg/kg, 16 hours): 1-2 | No. ova/ovulating mice (Mean ± SEM) (PGT [2]; hCG + BCG 350 mg/kg, 16 hours): 0* | No. ova/ovulating mice (Mean ± SEM) (PGT [2]; hCG + BCG 500 mg/kg, 16 hours): 0* | ovarian morphology (PGT [3]; hCG+BCG 350 mg/kg, 16 hours after hCG): un-ruptured follicles with entrapped oocytes | increase in the media concentration of PGE2 relative to controls (PGT [6]; co-treatment hCG 1U/ml + BCG 50 mM, 24 hours): ~3 fold | basal media concentration of PGE2 (PGT [6]; no hCG): without effect

EP4 receptor mRNA expression compared to controls (EP4 receptor): significant downregulation
Molecule: CCCCC[C@H](O)/C=C/[C@H]1[C@H](O)CC(=O)[C@@H]1C/C=C\CCCC(=O)O [PGE2, Prostaglandin E2]
intracellular cAMP in response to further PGE2 stimulation (EP receptor): significantly reduced accumulation of intracellular cAMP

Molecule: C=C[C@@]1(C)CC(=O)[C@]2(O)[C@@]3(C)[C@@H](O)CCC(C)(C)[C@@H]3[C@H](O)[C@H](OC(C)=O)[C@@]2(C)O1 [FSK, forskolin]
fold induction at 10 µM (PGT transcripts in MGCs; [8]): 25

Molecule: Pregnant mare serum gonadotropin [PMSG]
level of PGT in the ovaries relative to control (saline) [7]: 2.3 folds

Molecule: N#CC(=C(/N)Sc1ccccc1N)/C(C#N)=C(\N)Sc1ccccc1N [U0126]
FSK-induced upregulation of PGT expression (PGT transcripts in MGCs; pretreatment 10 μM for 1 hour): markedly inhibited | PMA-mediated upregulation of PGT transcripts (PGT transcripts in MGCs; pretreatment 10 μM for 1 hour, then PMA 20 nM 24 hours): markedly inhibited | hCG-induced upregulation of PGT expression (PGT transcripts in MGCs; pretreatment 10 μM for 1 hour): effectively abolished

Molecule: O=S(=O)(NCCNC/C=C/c1ccc(Br)cc1)c1cccc2cnccc12 [H89]
FSK-induced upregulation of PGT expression (PGT transcripts in MGCs; pretreatment 10 μM for 1 hour): largely inhibited | hCG-induced upregulation of PGT expression (PGT transcripts in MGCs; pretreatment 10 μM for 1 hour): largely inhibited

B1: amphiregulin (protein, UniProt P31955 100-248, looked up)
Amphiregulin: VIKPKKNKTEGEKSTEKPKRKKKGGKNGKGRRNKKKKNPCTAKFQNFCIHGECRYIENLEVVTCNCHQDYFGERCGEKSMKTHSEDDKDLSKIAVVAVTIFVSAIILAAIGIGIVITVHLWKRYFREYEGETEERRRLRQENGTVHAIA
induction of PGT expression (PGT transcripts in MGCs; FSH-pretreated MGCs exposed to AREG for 24 hours, vs vehicle (PBS)): 3 fold
